Reference: PubChem BioAssay (NCI)
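96-well plates; 48 h exposure; 5 concentrations. Endpoints by linear interpolation between flanking doses. Not reached: highest tested concentration assigned. The concentration for 50% growth inhibition is given as GI50. TGI: total growth inhibition.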

How the values were obtained:
Experiment in all cases: inhibition of tumour cell growth, NCI panel, 48 h
PC-3 prostate = test system: PC-3 prostate
HOP-92 NSCLC = test system: HOP-92 NSCLC
SF-295 CNS = test system: SF-295 CNS
SK-MEL-28 melanoma = test system: SK-MEL-28 melanoma
OVCAR-4 ovarian = test system: OVCAR-4 ovarian
TK-10 renal = test system: TK-10 renal
MOLT-4 leukemia = test system: MOLT-4 leukemia
CCRF-CEM leukemia = test system: CCRF-CEM leukemia
SNB-19 CNS = test system: SNB-19 CNS
A498 renal = test system: A498 renal
OVCAR-5 ovarian = test system: OVCAR-5 ovarian
SK-OV-3 ovarian = test system: SK-OV-3 ovarian
HCT-116 colon = test system: HCT-116 colon
NCI-H460 lung = test system: NCI-H460 lung
ACHN renal = test system: ACHN renal
786-0 renal = test system: 786-0 renal
NCI-H23 lung = test system: NCI-H23 lung
T-47D breast = test system: T-47D breast
LOX IMVI melanoma = test system: LOX IMVI melanoma
SK-MEL-5 melanoma = test system: SK-MEL-5 melanoma
SF-268 CNS = test system: SF-268 CNS
OVCAR-3 ovarian = test system: OVCAR-3 ovarian
SN12C renal = test system: SN12C renal
HT29 colon = test system: HT29 colon
UO-31 renal = test system: UO-31 renal
RXF 393 renal = test system: RXF 393 renal
HCT-15 colon = test system: HCT-15 colon
MALME-3M melanoma = test system: MALME-3M melanoma
MDA-MB-468 breast = test system: MDA-MB-468 breast
IGROV1 ovarian = test system: IGROV1 ovarian
SK-MEL-2 melanoma = test system: SK-MEL-2 melanoma
SR leukemia = test system: SR leukemia
HCC-2998 colon = test system: HCC-2998 colon
COLO 205 colon = test system: COLO 205 colon
RPMI-8226 leukemia = test system: RPMI-8226 leukemia
BT-549 breast = test system: BT-549 breast
SW-620 colon = test system: SW-620 colon
NCI-H522 lung = test system: NCI-H522 lung
EKVX NSCLC = test system: EKVX NSCLC
UACC-62 melanoma = test system: UACC-62 melanoma
SF-539 CNS = test system: SF-539 CNS
K-562 leukemia = test system: K-562 leukemia
M14 melanoma = test system: M14 melanoma
MDA-MB-435 = test system: MDA-MB-435
CAKI-1 renal = test system: CAKI-1 renal
MDA-MB-231 breast = test system: MDA-MB-231 breast
MCF7 breast = test system: MCF7 breast
NCI-H226 lung = test system: NCI-H226 lung
U251 CNS = test system: U251 CNS
OVCAR-8 ovarian = test system: OVCAR-8 ovarian
KM12 colon = test system: KM12 colon
HOP-62 NSCLC = test system: HOP-62 NSCLC
A549 NSCLC = test system: A549 NSCLC
DU-145 prostate = test system: DU-145 prostate

`Cc1ccccc1Nc1nnc(-c2c[nH]c3ccccc23)o1` was tested, and the GI50 (PC-3 prostate) was 3.41 µM, the TGI (PC-3 prostate) was over 100 µM and the GI50 (HOP-92 NSCLC) was 5.66 µM. For the same compound, the TGI (HOP-92 NSCLC) was over 100 µM, the GI50 (SF-295 CNS) was 0.567 µM and the TGI (SF-295 CNS) was 6 µM. The GI50 (SK-MEL-28 melanoma) was 3.91 µM, the TGI (SK-MEL-28 melanoma) was over 100 µM and the GI50 (OVCAR-4 ovarian) was 8.06 µM. It also gave a TGI (OVCAR-4 ovarian) of over 100 µM, a GI50 (TK-10 renal) of 7.65 µM and a TGI (TK-10 renal) of over 100 µM. The GI50 (MOLT-4 leukemia) was 2.55 µM, the TGI (MOLT-4 leukemia) was over 100 µM and the GI50 (CCRF-CEM leukemia) was 2.09 µM. The TGI (CCRF-CEM leukemia) was over 100 µM, the GI50 (SNB-19 CNS) was 3.36 µM and the TGI (SNB-19 CNS) was over 100 µM. The GI50 (A498 renal) was over 100 µM, the TGI (A498 renal) was over 100 µM and the GI50 (OVCAR-5 ovarian) was 4.13 µM. The TGI (OVCAR-5 ovarian) was over 100 µM, the GI50 (SK-OV-3 ovarian) was 3.52 µM and the TGI (SK-OV-3 ovarian) was over 100 µM. It also gave a GI50 (HCT-116 colon) of 5.96 µM, a TGI (HCT-116 colon) of over 100 µM and a GI50 (NCI-H460 lung) of 2.88 µM. For the same compound, the TGI (NCI-H460 lung) was over 100 µM, the GI50 (ACHN renal) was 4.32 µM and the TGI (ACHN renal) was over 100 µM. The GI50 (786-0 renal) was 5.58 µM, the TGI (786-0 renal) was over 100 µM and the GI50 (NCI-H23 lung) was 3.38 µM. The TGI (NCI-H23 lung) was over 100 µM, the GI50 (T-47D breast) was 12.6 µM and the TGI (T-47D breast) was over 100 µM. For the same compound, the GI50 (LOX IMVI melanoma) was 2.96 µM, the TGI (LOX IMVI melanoma) was over 100 µM and the GI50 (SK-MEL-5 melanoma) was 2.32 µM. For the same compound, the TGI (SK-MEL-5 melanoma) was over 100 µM, the GI50 (SF-268 CNS) was 5.15 µM and the TGI (SF-268 CNS) was over 100 µM. It also gave a GI50 (OVCAR-3 ovarian) of 0.889 µM, a TGI (OVCAR-3 ovarian) of over 100 µM and a GI50 (SN12C renal) of 3.25 µM. The TGI (SN12C renal) was over 100 µM, the GI50 (HT29 colon) was 2.13 µM and the TGI (HT29 colon) was 11.6 µM. It also gave a GI50 (UO-31 renal) of 1.88 µM, a TGI (UO-31 renal) of over 100 µM and a GI50 (RXF 393 renal) of 2.25 µM. It also gave a TGI (RXF 393 renal) of 9.91 µM, a GI50 (HCT-15 colon) of 1.78 µM and a TGI (HCT-15 colon) of over 100 µM. The GI50 (MALME-3M melanoma) was 0.869 µM, the TGI (MALME-3M melanoma) was over 100 µM and the GI50 (MDA-MB-468 breast) was 2.21 µM. The TGI (MDA-MB-468 breast) was 7.14 µM, the GI50 (IGROV1 ovarian) was 2.32 µM and the TGI (IGROV1 ovarian) was over 100 µM. For the same compound, the GI50 (SK-MEL-2 melanoma) was 1.16 µM, the TGI (SK-MEL-2 melanoma) was 4.4 µM and the GI50 (SR leukemia) was 0.527 µM. The TGI (SR leukemia) was over 100 µM, the GI50 (HCC-2998 colon) was 3.3 µM and the TGI (HCC-2998 colon) was 15.9 µM. The GI50 (COLO 205 colon) was 2.22 µM, the TGI (COLO 205 colon) was 16.7 µM and the GI50 (RPMI-8226 leukemia) was 3.03 µM. For the same compound, the TGI (RPMI-8226 leukemia) was over 100 µM, the GI50 (BT-549 breast) was 3.7 µM and the TGI (BT-549 breast) was over 100 µM. The GI50 (SW-620 colon) was 0.882 µM, the TGI (SW-620 colon) was over 100 µM and the GI50 (NCI-H522 lung) was 0.85 µM. It also gave a TGI (NCI-H522 lung) of 6.34 µM, a GI50 (EKVX NSCLC) of 4.48 µM and a TGI (EKVX NSCLC) of over 100 µM. It also gave a GI50 (UACC-62 melanoma) of 1.13 µM, a TGI (UACC-62 melanoma) of over 100 µM and a GI50 (SF-539 CNS) of 1.9 µM. It also gave a TGI (SF-539 CNS) of 5.22 µM, a GI50 (K-562 leukemia) of 0.531 µM and a TGI (K-562 leukemia) of over 100 µM. The GI50 (M14 melanoma) was 1.32 µM, the TGI (M14 melanoma) was over 100 µM and the GI50 (MDA-MB-435) was 0.298 µM. The TGI (MDA-MB-435) was 1.13 µM, the GI50 (CAKI-1 renal) was 0.897 µM and the TGI (CAKI-1 renal) was over 100 µM. The GI50 (MDA-MB-231 breast) was 3.68 µM, the TGI (MDA-MB-231 breast) was over 100 µM and the GI50 (MCF7 breast) was 3.02 µM. It also gave a TGI (MCF7 breast) of over 100 µM, a GI50 (NCI-H226 lung) of 4.44 µM and a TGI (NCI-H226 lung) of over 100 µM. The GI50 (U251 CNS) was 3.18 µM, the TGI (U251 CNS) was over 100 µM and the GI50 (OVCAR-8 ovarian) was 3.44 µM. For the same compound, the TGI (OVCAR-8 ovarian) was over 100 µM, the GI50 (KM12 colon) was 4.6 µM and the TGI (KM12 colon) was over 100 µM. For the same compound, the GI50 (HOP-62 NSCLC) was 3.6 µM, the TGI (HOP-62 NSCLC) was over 100 µM and the GI50 (A549 NSCLC) was 6.09 µM. It also gave a TGI (A549 NSCLC) of over 100 µM, a GI50 (DU-145 prostate) of 5.47 µM and a TGI (DU-145 prostate) of over 100 µM.
